Test results published in the supplement of paper PMC10307832.

Compound: CCN(CC)CCNC(=O)c1c(C)[nH]c(/C=C2\C(=O)Nc3ccc(F)cc32)c1C [Sunitinib] + Cc1cc(Nc2cc(N3CCN(C)CC3)nc(Sc3ccc(NC(=O)C4CC4)cc3)n2)n[nH]1 [Tozasertib] (partner 0.1 µM)
Test: relative viability (nuclei count vs DMSO), 5 days (fraction); higher = more cells survive
How it was run: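 Relative viability equals treated-well nuclei counts divided by vehicle-well nuclei counts. Counts came from 4× images of lung cancer cell lines grown in 1536-well plates for 5 days after pin-tool dosing on the day after seeding. Dosing used one drug alone or a fixed anchor-drug dose plus five library-drug doses (not always all listed) in √10 steps, and values are medians of duplicate plates.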

Row | Cell Line | relative viability (first compound 0.02 µM) | relative viability (first compound 0.06325 µM) | relative viability (first compound 0.2 µM) | relative viability (first compound 2 µM) | relative viability (first compound 0.6325 µM)
1 | 201T | 0.918 | 0.948 | 1.1 | 0.88 | 
2 | A-427 | 0.225 | 0.233 | 0.219 | 0.194 | 0.213
3 | ABC-1 | 0.187 | 0.189 | 0.172 | 0.154 | 0.18
4 | BEN | 0.526 | 0.426 | 0.576 | 0.466 | 0.61
5 | CAL-12T | 0.324 | 0.302 | 0.314 | 0.213 | 0.324
6 | COR-L23 | 0.19 | 0.217 | 0.196 | 0.176 | 0.215
7 | COR-L 105 | 0.365 | 0.378 | 0.371 | 0.41 | 0.401
8 | ChaGo-K-1 | 0.211 | 0.209 | 0.209 | 0.191 | 0.237
9 | EKVX | 0.411 | 0.39 | 0.476 | 0.366 | 0.459
10 | EMC-BAC-2 | 0.264 | 0.297 | 0.308 | 0.332 | 0.289
11 | EPLC-272H | 0.382 | 0.333 | 0.285 | 0.318 | 0.196
12 | H3255 | 0.763 | 0.879 | 0.785 | 0.654 | 0.73
13 | HARA | 0.105 | 0.148 | 0.216 | 0.0991 | 0.076
14 | HCC-15 | 0.407 | 0.371 | 0.468 | 0.651 | 0.411
15 | HCC-44 | 0.923 | 1.01 | 1.44 | 0.499 | 1.07
16 | HCC-78 | 0.411 | 0.502 | 0.548 | 0.43 | 1.43
17 | HCC-366 | 0.12 | 0.0634 | 0.133 | 0.0457 | 0.0819
18 | HCC-827 | 0.405 | 0.416 | 0.449 | 0.407 | 0.439
19 | HOP-62 | 0.351 | 0.352 | 0.383 | 0.397 | 0.431
20 | LC-2-ad | 0.479 | 0.484 | 0.486 | 0.493 | 0.502
21 | LCLC-97TM1 | 0.202 | 0.214 | 0.268 | 0.236 | 0.195
22 | LCLC-103H | 0.459 | 0.44 | 0.478 | 0.514 | 0.44
23 | LK-2 | 0.177 | 0.196 | 0.167 | 0.188 | 0.167
24 | LOU-NH91 | 0.666 | 0.732 | 0.673 | 0.738 | 0.753

Row | Cell Line | relative viability (first compound 0.02 µM) | relative viability (first compound 0.06325 µM) | relative viability (first compound 0.2 µM) | relative viability (first compound 2 µM) | relative viability (first compound 0.6325 µM)
25 | LU99A | 0.296 | 0.285 | 0.267 | 0.273 | 0.273
26 | LXF-289 | 0.199 | 0.182 | 0.191 | 0.269 | 0.203
27 | NCI-H23 |  | 0.37 | 0.499 | 0.264 | 0.341
28 | NCI-H322M | 0.452 | 0.464 | 0.546 | 0.42 | 0.547
29 | NCI-H358 | 0.114 | 0.0928 | 0.123 | 0.109 | 0.103
30 | NCI-H441 | 0.706 | 0.639 | 0.652 | 0.494 | 0.71
31 | NCI-H460 | 0.427 | 0.206 | 0.421 | 0.104 | 0.292
32 | NCI-H520 | 0.44 | 0.384 | 0.435 | 0.421 | 0.375
33 | NCI-H522 | 0.6 | 0.568 | 0.499 | 0.682 | 0.521
34 | NCI-H596 | 1.01 | 0.944 | 0.985 | 0.705 | 0.912
35 | NCI-H647 | 0.344 | 0.294 | 0.262 | 0.309 | 0.345
36 | NCI-H650 | 0.697 | 0.831 | 0.771 | 0.745 | 0.801
37 | NCI-H661 | 0.357 | 0.379 | 0.356 | 0.401 | 0.363
38 | NCI-H727 | 0.603 | 0.686 | 0.565 | 0.529 | 0.658
39 | NCI-H838 | 0.301 | 0.311 | 0.314 | 0.246 | 0.266
40 | NCI-H1355 | 0.529 | 0.561 | 0.601 | 0.406 | 0.594
41 | NCI-H1395 | 0.751 | 0.72 | 0.696 | 0.779 | 0.846
42 | NCI-H1437 | 0.391 | 0.302 | 0.408 | 0.41 | 0.39
43 | NCI-H1648 |  | 0.477 | 0.482 | 0.667 | 0.596
44 | NCI-H1650 | 0.323 | 0.416 | 0.382 | 0.245 | 0.321
45 | NCI-H1651 | 0.618 | 0.687 | 0.787 | 0.548 | 0.584
46 | NCI-H1666 | 0.676 | 0.685 | 0.719 | 0.71 | 0.655
47 | NCI-H1734 | 0.265 | 0.262 | 0.25 | 0.247 | 0.325
48 | NCI-H1755 | 0.561 | 0.529 | 0.752 | 0.569 | 0.593

Row | Cell Line | relative viability (first compound 0.02 µM) | relative viability (first compound 0.06325 µM) | relative viability (first compound 0.2 µM) | relative viability (first compound 2 µM) | relative viability (first compound 0.6325 µM)
49 | NCI-H1793 | 0.413 | 0.34 | 0.351 | 0.214 | 0.281
50 | NCI-H1915 | 0.415 | 0.418 | 0.46 | 0.465 | 0.453
51 | NCI-H1944 | 0.229 | 0.283 | 0.283 | 0.258 | 0.255
52 | NCI-H1975 | 0.705 | 0.67 | 0.717 | 0.186 | 0.318
53 | NCI-H1993 | 0.527 | 0.581 | 0.678 | 0.586 | 0.605
54 | NCI-H2009 | 0.695 | 0.747 | 0.858 | 0.716 | 0.78
55 | NCI-H2023 | 0.304 | 0.301 | 0.382 | 0.181 | 0.239
56 | NCI-H2085 | 0.863 | 0.835 | 1.02 | 0.605 | 0.747
57 | NCI-H2087 | 0.253 | 0.259 | 0.329 | 0.233 | 0.284
58 | NCI-H2126 | 0.846 | 0.852 | 0.963 | 0.81 | 0.92
59 | NCI-H2170 | 0.771 | 0.961 | 0.715 | 0.838 | 0.808
60 | NCI-H2228 | 0.23 | 0.266 | 0.279 | 0.223 | 0.207
61 | NCI-H2342 | 0.396 | 0.616 | 0.539 | 0.453 | 0.56
62 | NCI-H2347 | 0.599 | 0.481 | 0.59 | 0.523 | 0.607
63 | NCI-H2405 | 0.757 | 0.794 | 0.811 | 0.809 | 0.761
64 | NCI-H3122 | 0.429 | 0.475 | 0.539 | 0.567 | 0.433
65 | PC-3 [JPC-3] | 0.912 | 0.909 | 0.954 | 0.867 | 0.936
66 | PC-14 | 0.53 | 0.589 | 0.583 | 0.523 | 0.578
67 | RERF-LC-KJ | 0.508 | 0.487 | 0.547 | 0.541 | 0.47
68 | SK-LU-1 | 0.377 | 0.424 | 0.433 | 0.332 | 0.379
69 | SK-MES-1 | 0.892 |  | 0.979 |  | 1
70 | SW 1573 | 0.153 | 0.22 | 0.205 | 0.195 | 0.155
71 | UMC-11 | 0.206 | 0.207 | 0.198 | 0.197 | 0.199
